According to ChEMBL document CHEMBL1201862, “PubChem BioAssay data set” (2004):
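All cell lines were grown in 96-well plates and treated with compound for 48 hours. At the GI50, growth is halved.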 Activity calls are given as the source filed them. Rule as the data show it: active = GI50 up to about 1.1 µM and inactive = higher.

Legend:
Assay in all cases: DTP human tumour cell line panel, 48 h
[1] = tested on: SF-268
[2] = tested on: SF-295
[3] = tested on: MDA-MB-231
[4] = tested on: OVCAR-3
[5] = tested on: UACC-257
[6] = tested on: Hs-578T
[7] = tested on: SW-620
[8] = tested on: CCRF-CEM
[9] = tested on: NCI-H23
[10] = tested on: HCC 2998
[11] = tested on: HT-29
[12] = tested on: A498
[13] = tested on: M14
[14] = tested on: MCF7
[15] = tested on: CAKI-1
[16] = tested on: EKVX
[17] = tested on: TK-10
[18] = tested on: KM12
[19] = tested on: HOP-62
[20] = tested on: RXF 393

SMILES | GI50 [1] | GI50 [2] | GI50 [3] | GI50 [4] | GI50 [5] | GI50 [6] | GI50 [7] | GI50 [8] | GI50 [9] | GI50 [10] | GI50 [11] | GI50 [12] | GI50 [13] | GI50 [14] | GI50 [15] | GI50 [16] | GI50 [17] | GI50 [18] | GI50 [19] | GI50 [20]
Nc1ccc(Cc2c(N)[nH]c(=O)[nH]c2=O)cc1 | > 100 µM (inactive) | > 100 µM (inactive) | > 100 µM (inactive) | > 100 µM (inactive) | > 100 µM (inactive) | > 100 µM (inactive) | > 100 µM (inactive) | 39.5 µM (inactive) | > 100 µM (inactive) | > 100 µM (inactive) | > 100 µM (inactive) | 47.3 µM (inactive) | > 100 µM (inactive) | > 100 µM (inactive) | > 100 µM (inactive) | – | – | – | – | –
COC(=O)NC1(NC(=O)OC)NC(=O)c2cc(OC)c(OC)cc2N1 | 78.7 µM (inactive) | 23.6 µM (inactive) | – | 21.2 µM (inactive) | 45 µM (inactive) | 29.4 µM (inactive) | 42.6 µM (inactive) | 5.21 µM (inactive) | 50.2 µM (inactive) | – | – | – | 20.8 µM (inactive) | 16.1 µM (inactive) | 19.2 µM (inactive) | 89.3 µM (inactive) | > 100 µM (inactive) | 35.8 µM (inactive) | 3.14 µM (inactive) | –
CCCn1c(SC)nc(COC(=O)NC)c1COC(=O)NC | > 100 µM (inactive) | > 100 µM (inactive) | > 100 µM (inactive) | > 100 µM (inactive) | > 100 µM (inactive) | > 100 µM (inactive) | > 100 µM (inactive) | > 100 µM (inactive) | > 100 µM (inactive) | – | > 100 µM (inactive) | 64 µM (inactive) | > 100 µM (inactive) | > 100 µM (inactive) | > 100 µM (inactive) | > 100 µM (inactive) | > 100 µM (inactive) | > 100 µM (inactive) | > 100 µM (inactive) | –
O=C1Nc2ccccc2[C@]12C[C@H]2c1ccccn1 | > 100 µM (inactive) | > 100 µM (inactive) | > 100 µM (inactive) | > 100 µM (inactive) | > 100 µM (inactive) | – | > 100 µM (inactive) | > 100 µM (inactive) | > 100 µM (inactive) | > 100 µM (inactive) | – | > 100 µM (inactive) | > 100 µM (inactive) | > 100 µM (inactive) | > 100 µM (inactive) | > 100 µM (inactive) | > 100 µM (inactive) | > 100 µM (inactive) | > 100 µM (inactive) | > 100 µM (inactive)
O=C(c1c(Cl)cc(Cl)cc1Cl)N(Cc1cccnc1)C(=S)N(Cc1cccnc1)C(=O)c1c(Cl)cc(Cl)cc1Cl | 6.97 µM (inactive) | 19.4 µM (inactive) | 20.4 µM (inactive) | 3.77 µM (inactive) | 7.26 µM (inactive) | 23.9 µM (inactive) | 4.14 µM (inactive) | 5.56 µM (inactive) | 8.67 µM (inactive) | 3.12 µM (inactive) | 2.97 µM (inactive) | 23.8 µM (inactive) | 4.82 µM (inactive) | 4.52 µM (inactive) | 5.32 µM (inactive) | 15.5 µM (inactive) | 3.93 µM (inactive) | 2.97 µM (inactive) | 4.35 µM (inactive) | –
Cc1cnoc1NS(=O)(=O)c1ccc(Nc2nnc(/C=C/c3c(O)ccc4ccccc34)c(=O)n2N)cc1 | 11.3 µM (inactive) | 64 µM (inactive) | – | 17.3 µM (inactive) | – | 29.2 µM (inactive) | 32.7 µM (inactive) | 10.9 µM (inactive) | 7.73 µM (inactive) | – | 58.6 µM (inactive) | – | 25.9 µM (inactive) | 18.2 µM (inactive) | 27.5 µM (inactive) | 35.9 µM (inactive) | – | – | 46 µM (inactive) | 24 µM (inactive)
Cc1cc(C)nc(NS(=O)(=O)c2ccc(Nc3c4ccccc4nc4c(C(=O)NNCCO)cccc34)cc2)n1 | > 100 µM (inactive) | > 100 µM (inactive) | > 100 µM (inactive) | 86.9 µM (inactive) | > 100 µM (inactive) | > 100 µM (inactive) | > 100 µM (inactive) | 21 µM (inactive) | > 100 µM (inactive) | > 100 µM (inactive) | > 100 µM (inactive) | > 100 µM (inactive) | > 100 µM (inactive) | 89.1 µM (inactive) | > 100 µM (inactive) | > 100 µM (inactive) | > 100 µM (inactive) | > 100 µM (inactive) | > 100 µM (inactive) | –
O=C(/C=C1/Nc2ccc([N+](=O)[O-])cc2N/C1=C/C(=O)c1ccccc1)c1ccccc1 | 15.2 µM (inactive) | 15 µM (inactive) | 16.6 µM (inactive) | 16.7 µM (inactive) | > 100 µM (inactive) | – | – | 10.6 µM (inactive) | 12.4 µM (inactive) | 55.8 µM (inactive) | 71.1 µM (inactive) | 21.4 µM (inactive) | 86.9 µM (inactive) | 21 µM (inactive) | 26.7 µM (inactive) | 30.8 µM (inactive) | 24.9 µM (inactive) | 59.4 µM (inactive) | 12.1 µM (inactive) | 14.3 µM (inactive)
CCCc1c2c3ccccc3nc-2nc2ccccn12 | 24.4 µM (inactive) | 49.8 µM (inactive) | 72.1 µM (inactive) | 56 µM (inactive) | > 100 µM (inactive) | > 100 µM (inactive) | 36.4 µM (inactive) | > 100 µM (inactive) | 0.863 µM (active) | – | 43.6 µM (inactive) | > 100 µM (inactive) | 26.7 µM (inactive) | – | > 100 µM (inactive) | > 100 µM (inactive) | 52.7 µM (inactive) | 49.4 µM (inactive) | 25.4 µM (inactive) | –
Cc1ccc(C(=O)N/N=C(\N=N\c2ccc(C(=O)O)cc2)c2ccc(N(CCC#N)CCC#N)cc2C)cc1 | – | > 100 µM (inactive) | > 100 µM (inactive) | 62.8 µM (inactive) | > 100 µM (inactive) | – | > 100 µM (inactive) | > 100 µM (inactive) | > 100 µM (inactive) | > 100 µM (inactive) | > 100 µM (inactive) | 53.8 µM (inactive) | > 100 µM (inactive) | > 100 µM (inactive) | > 100 µM (inactive) | > 100 µM (inactive) | > 100 µM (inactive) | > 100 µM (inactive) | > 100 µM (inactive) | 32.1 µM (inactive)
CCOC(=O)/C(C#N)=C/c1coc2cc(C)cc(C)c2c1=O | 66.4 µM (inactive) | 91.6 µM (inactive) | > 100 µM (inactive) | 64.9 µM (inactive) | > 100 µM (inactive) | > 100 µM (inactive) | > 100 µM (inactive) | > 100 µM (inactive) | > 100 µM (inactive) | > 100 µM (inactive) | > 100 µM (inactive) | > 100 µM (inactive) | > 100 µM (inactive) | – | > 100 µM (inactive) | > 100 µM (inactive) | > 100 µM (inactive) | > 100 µM (inactive) | > 100 µM (inactive) | > 100 µM (inactive)
c1c[nH]c(-c2cccc3nsnc23)c1 | > 100 µM (inactive) | > 100 µM (inactive) | 99.3 µM (inactive) | – | > 100 µM (inactive) | – | > 100 µM (inactive) | 93.1 µM (inactive) | > 100 µM (inactive) | > 100 µM (inactive) | 53.3 µM (inactive) | 61.7 µM (inactive) | > 100 µM (inactive) | 6.7 µM (inactive) | 43.5 µM (inactive) | 33 µM (inactive) | 19.3 µM (inactive) | 30.8 µM (inactive) | 30.7 µM (inactive) | 38.1 µM (inactive)
OC1c2[nH]c3ccccc3c2CCN2CCCCC12 (stereo unspecified) | > 100 µM (inactive) | > 100 µM (inactive) | > 100 µM (inactive) | > 100 µM (inactive) | > 100 µM (inactive) | – | > 100 µM (inactive) | > 100 µM (inactive) | > 100 µM (inactive) | 75.3 µM (inactive) | > 100 µM (inactive) | > 100 µM (inactive) | > 100 µM (inactive) | > 100 µM (inactive) | > 100 µM (inactive) | > 100 µM (inactive) | > 100 µM (inactive) | > 100 µM (inactive) | > 100 µM (inactive) | > 100 µM (inactive)
CC(C)CC(NC(=O)C(C)(CI)Cc1ccccc1)C(=O)Nc1ccccc1 (stereo unspecified) | – | > 100 µM (inactive) | > 100 µM (inactive) | > 100 µM (inactive) | > 100 µM (inactive) | – | > 100 µM (inactive) | > 100 µM (inactive) | > 100 µM (inactive) | > 100 µM (inactive) | – | > 100 µM (inactive) | > 100 µM (inactive) | > 100 µM (inactive) | > 100 µM (inactive) | > 100 µM (inactive) | > 100 µM (inactive) | > 100 µM (inactive) | – | > 100 µM (inactive)
CC(C(N)=O)N(C)C(=O)c1cnc2ccccc2c1 (stereo unspecified) | > 10 µM (inactive) | > 100 µM (inactive) | > 100 µM (inactive) | > 100 µM (inactive) | > 100 µM (inactive) | – | > 100 µM (inactive) | > 100 µM (inactive) | > 10 µM (inactive) | > 100 µM (inactive) | > 100 µM (inactive) | > 100 µM (inactive) | > 100 µM (inactive) | > 100 µM (inactive) | > 100 µM (inactive) | – | > 100 µM (inactive) | > 100 µM (inactive) | – | > 100 µM (inactive)
Cc1ccc(N/C(=C(/C(Cl)=C(Cl)Cl)[N+](=O)[O-])n2nnc3ccccc32)cc1 | 18.8 µM (inactive) | 20.1 µM (inactive) | – | 16.7 µM (inactive) | 26 µM (inactive) | 25.8 µM (inactive) | 20.7 µM (inactive) | 7.06 µM (inactive) | 21.5 µM (inactive) | 18.7 µM (inactive) | 22 µM (inactive) | – | 16.6 µM (inactive) | 29.1 µM (inactive) | 17.7 µM (inactive) | 19.1 µM (inactive) | – | 21.2 µM (inactive) | 18.2 µM (inactive) | –
